Like-named read-outs stand apart in the source and are kept apart here. Where a SMILES comes first, the peptide text is derived from it.
Tests used:
[1] = test system: peripheral blood mononuclear cells; assay: Viability of mononuclear cells, flow cytometry after propidium iodide; type: cell-based, human
Protocol: The possibility that Gly-Pro-Gly may affect the viability and/or function of normal human circulating lymphomonocytic cells was examined by adding Gly-Pro-Gly to unfractionated and T cell enriched (CD2^+ = nominal T cells; CD4^+ = putative helper/inducer T cell subset; CD8+ = putative cytotoxic/suppressor T cell subset) peripheral blood mononuclear cell suspensions from healthy normal blood donors.
Thus, the viability of peripheral blood mononuclear cells exposed to Gly-Pro-Gly (2 mM, 4 days) was 99.67% and that of corresponding unexposed cells was 99.66% (mean of 4 experiments).

[2] = In vivo toxicity, growth of mice after intraperitoneal injections; details: intraperitoneal injections starting at an age of 6 days; compared with controls
Excerpt: In an in vivo test of the toxicity of Gly-Pro-Gly, groups of mice were given intraperitoneal injections of the substance starting at an age of 6 days. Figure 3 also graphically depicts the results. […] The peptides are thus non-toxic even when given in large doses.

[3] = test system: herpes simplex virus type I (HSV-1) strain McIntyre; assay: Yield inhibition assay of HSV-1 in GMK cells; type: cell-based
Protocol: To determine the specificity and toxicity of the peptides, Tyr-Arg-Gly-Pro-Gly, Gly-Pro-Gly and Arg-Gly-Pro-Gly were tested in (1) a plaque reduction assay and (2) a yield inhibition assay of herpes simplex virus type I (HSV-1) strain McIntyre.
The yield inhibition assay was performed as follows: HSV-1 was inoculated at a multiplicity of 0.5 pfu per GMK cell in the presence of the respective peptide at concentrations of 250 and 25 µg/ml. Virus adsorption was performed for 60 min. at room temperature. The cells were then rinsed five times with Hanks' Balanced Salt Solution (BSS) and incubated in a 5% CO2 atmosphere at 37°C with maintenance medium containing either peptides or acyclovir, according to the methods described in "Proceedings of a Symposium on Acyclovir", The American Journal of Medicine, July 20, (1982) which is incorporated herein by reference, or without any additives. Twenty-four hours p.i. the cells were freeze-thawed, scraped into the medium and tested for virus yield by the infectivity assay as outlined in Example 2. The results are shown in Table 7 where the plaque reduction values are the mean of two cultures and the yield of HSV-1 after 24 hours is the mean of two determinations and the values are presented in millions of pfu/ml.

HTLV IIIB/H9 N.Y. [4] = assay: Infectivity assay (p24 ELISA, syncytia formation, indirect immunofluorescence), HTLV-IIIB/H9 New York; type: cell-based, HIV
ELI1/HUT [5] = assay: Infectivity assay (p24 ELISA, indirect immunofluorescence), ELI-1/HUT; type: cell-based, HIV
HIV = type: cell-based
Protocol: Virus at 100 50% tissue culture infectious doses (TCID50) and peptides at concentrations of 250 and 25 µg/ml were added to the cells simultaneously and incubated for 2 hours at 4°C with frequent stirring. Subsequently, the temperature was increased to 37°C and the mixtures were subjected to a second incubation for 2 hours. […] Cells, at a concentration of 5 x 10^5/ml, were then added to 24 multidish well plates at a final volume of 1.5 ml of growth medium (RPMI supplemented with 10% fetal calf serum (FCS), antibiotics and polybrene (2 µg/ml)), with the addition of peptides at dilutions of 250 or 25 µg/ml. […]
(§1) Infected cells were continuously monitored for formation of syncytia and the growth medium supernatants were analyzed at days 9-12 p.i. for p24 antigen which is an indicator of HIV replication.
Briefly, the following protocol was used for detection of the p24 antigen. HIV p24 antigen was determined using a rabbit anti-p24 polyclonal antiserum as capture antibody and a biotinylated rabbit anti-p24 polyclonal antibody was used as detecting antibody in an avidin-horse radish peroxidase (HRP) ELISA. […] Serial dilutions of the supernatants were made so as to detect p24 concentration in the most accurate range (< 2.0 absorbance units). […]

HTLV IIIB/H9 N.Y. [6] = test system: HTLV IIIB/H9 N.Y.
Protocol: (§2) Table 1 lists the peptides and their amino acid sequences tested against the following virus/cell systems: • (1) HTLV-111B/H9 Denmark (obtained from Denmark, Bent Faber-Vestergard); • (2) HTLV-111B/H9 New York (obtained from Dr. William Hall, North Shore Hospital, Manhasset, N.Y.); and • (3) ELI-1/HUT (obtained from Dr. Levy, San Francisco, CA).
(§3) Virus at 100 50% tissue culture infectious doses (TCID50) and peptides at concentrations of 250 and 25 µg/ml were added to the cells simultaneously and incubated for 2 hours at 4°C with frequent stirring. Subsequently, the temperature was increased to 37°C and the mixtures were subjected to a second incubation for 2 hours. Following the second incubation, the cells were centrifuged at 325 x g and washed once in RPMI medium (Gibco Laboratories, NY). Cells, at a concentration of 5 x 10^5/ml, were then added to 24 multidish well plates at a final volume of 1.5 ml of growth medium (RPMI supplemented with 10% fetal calf serum (FCS), antibiotics and polybrene (2 µg/ml)), with the addition of peptides at dilutions of 250 or 25 µg/ml. […] As additional controls, two HIV infected cell cultures (designated pos. controls 1 and 2, Tables 3-5) and two uninfected cell cultures (designated neg. controls 1 and 2) were used.
as §1
(§4) Briefly, the following protocol was used for detection of the p24 antigen. HIV p24 antigen was determined using a rabbit anti-p24 polyclonal antiserum as capture antibody and a biotinylated rabbit anti-p24 polyclonal antibody was used as detecting antibody in an avidin-horse radish peroxidase (HRP) ELISA. The sensitivity of the assay allowed detection of approximately 50 pg of p24 antigen per ml supernatant. […] Serial dilutions of the supernatants were made so as to detect p24 concentration in the most accurate range (< 2.0 absorbance units).
(§5) At the end of the experiment, the cells were collected and fixed on slides with acetone according to standard procedures as described in Jeansson et al., Exp. Cell Res., 161:181-188 (1985). The number of infected cells were then determined by indirect immunofluorescence using a human HIV positive serum diluted 1/100 and FITC conjugated antihuman IgG (Bio Merieux, France) diluted 1/200.
(§6) In tables 3-6, the p24 content of the supernatants of infected cells was determined by diluting the supernatants of infected cells in serial tenfold dilutions (1/10, 1/100, 1/1000 and 1/10,000) and analyzing in ELISA as described above. Results are indicated by the absorbance values (454nm) of respective dilutions.
The peptides in their carboxy and amido forms were obtained from Bachem Feinchemikalien AG (Switzerland, GPG-NH2 Bachem, GPG-COOH, Bachem, PG-NH2 Bachem and PG-COOH Bachem) and Syntello (Sweden, GPG-NH2 Syntello). The effectiveness of the peptides was determined by both p24 production and syncytia formation as described in Example 2.
In tables 8 and 9, the p24 content of the supernatants of infected cells was determined by diluting the supernatants in serial tenfold dilutions (1/10, 1/100, 1/1,000) and analyzing by ELISA as described in Example 2. Results are indicated by the absorbance values (454 nm) of respective dilutions.

ELI1/HUT [7] = test system: ELI1/HUT
Protocol: as §2, §3, §1, §4, §5, §6

HTLV IIIB/H9 Denmark = test system: HTLV IIIB/H9 Denmark
Protocol: as §2, §3, §1, §4, §5, §6

[8] = test system: HTLV-IIIB replication in H9 cells; assay: Dose response and combination experiments, p24 ELISA; type: cell-based, HIV; details: Human immunodeficiency virus 1, IIIB, H9, read-out: approximate ID50 (p24 antigen reduced by 50%), supernatants diluted 1/5
Protocol: The results in Tables 10 and 11 were obtained as described in Example 2. The supernatants were tested for p24 on day 8 p.i. Supernatants were serially diluted (1/5, 1/50 and 1/500) and analyzed by ELISA as described in Example 2.

NCC(=O)N1CCC[C@H]1C(=O)NCC(N)=O [GPG, Gly-Pro-Gly-NH2] (H-Gly-Pro-Gly-NH2)
viability of peripheral blood mononuclear cells ([1]; 2 mM, 4 days, mean of 4 experiments, unexposed cells 99.66%): 99.67%
effect on viability of cultured monocytes and lymphocytes ([1]; doses as high as 2 mM, exposure as long as 4 days): did not appreciably affect the viability
influence on the growth of mice [2]: no significant influence

Nc1nc2c(ncn2COCCO)c(=O)[nH]1 [Acyclovir, acyclovir]
yields of HSV-1 ([3]; 2 µM): significantly reduced
YIELD OF HSV AFTER 24 HOURS ([3]; 2 µM, mean of two determinations): 0.9 millions of pfu/ml
activity at 2 µM ([3]; Human alphaherpesvirus 1, GMK, 24 h, read-out: YIELD OF HSV AFTER 24 HOURS PERCENT OF CONTROL): 3%

Arg-Gly-Pro-Gly-Arg (RGPGR; printed: Arg-Gly-Pro-Gly-Arg)
# OF SYNCYTIA/WELL Day 9 (HTLV IIIB/H9 N.Y. [4]; 25 µg/ml): 14
# OF SYNCYTIA/WELL Day 14 (HTLV IIIB/H9 N.Y. [4]; 25 µg/ml): >100
% OF POS CELLS (HTLV IIIB/H9 N.Y. [4]; 25 µg/ml): 5-10%
p24 1/10 (HTLV IIIB/H9 N.Y. [4]; 25 µg/ml): 2.16 absorbance (454 nm)
p24 1/100 (HTLV IIIB/H9 N.Y. [4]; 25 µg/ml): 0.853 absorbance (454 nm)
p24 1/1,000 (HTLV IIIB/H9 N.Y. [4]; 25 µg/ml): 0.268 absorbance (454 nm)
p24 1/10,000 (HTLV IIIB/H9 N.Y. [4]; 25 µg/ml): 0.145 absorbance (454 nm)
# OF SYNCYTIA/WELL Day 9 (HTLV IIIB/H9 N.Y. [4]; 250 µg/ml): 14
# OF SYNCYTIA/WELL Day 14 (HTLV IIIB/H9 N.Y. [4]; 250 µg/ml): >100
% OF POS CELLS (HTLV IIIB/H9 N.Y. [4]; 250 µg/ml): 10%
p24 1/10 (HTLV IIIB/H9 N.Y. [4]; 250 µg/ml): 2.116 absorbance (454 nm)
p24 1/100 (HTLV IIIB/H9 N.Y. [4]; 250 µg/ml): 0.974 absorbance (454 nm)
p24 1/1,000 (HTLV IIIB/H9 N.Y. [4]; 250 µg/ml): 0.334 absorbance (454 nm)
p24 1/10,000 (HTLV IIIB/H9 N.Y. [4]; 250 µg/ml): 0.15 absorbance (454 nm)
PERCENTAGE OF POS CELLS (ELI1/HUT [5]; 25 µg/ml): 10-15
p24 1/10 (ELI1/HUT [5]; 25 µg/ml): 3 absorbance (454 nm)
p24 1/100 (ELI1/HUT [5]; 25 µg/ml): 2.296 absorbance (454 nm)
p24 1/1,000 (ELI1/HUT [5]; 25 µg/ml): 0.745 absorbance (454 nm)
p24 1/10,000 (ELI1/HUT [5]; 25 µg/ml): 0.263 absorbance (454 nm)
PERCENTAGE OF POS CELLS (ELI1/HUT [5]; 250 µg/ml): 10-15
p24 1/10 (ELI1/HUT [5]; 250 µg/ml): 3 absorbance (454 nm)
p24 1/100 (ELI1/HUT [5]; 250 µg/ml): 1.999 absorbance (454 nm)
p24 1/1,000 (ELI1/HUT [5]; 250 µg/ml): 0.788 absorbance (454 nm)
p24 1/10,000 (ELI1/HUT [5]; 250 µg/ml): 0.339 absorbance (454 nm)
infection of treated cells by p24 synthesis and syncytia formation (HIV; Tables 3-5): became infected
prevention of HIV infection by p24 levels and syncytia formation (HIV; Tables 3 to 6): did not prevent HIV infection

Cc1cn([C@H]2C[C@H](N=[N+]=[N-])[C@@H](CO)O2)c(=O)[nH]c1=O [AZT, azidothymidine]
# OF SYNCYTIA/WELL Day 9 (HTLV IIIB/H9 N.Y. [6]; 0.2 µM): 22
# OF SYNCYTIA/WELL Day 14 (HTLV IIIB/H9 N.Y. [6]; 0.2 µM): >100
% OF POS CELLS (HTLV IIIB/H9 N.Y. [6]; 0.2 µM): 10%
# OF SYNCYTIA/WELL Day 14 (HTLV IIIB/H9 N.Y. [6]; 0.2 µM, Table 6): 29
PERCENTAGE OF AG POS CELLS (HTLV IIIB/H9 N.Y. [6]; 0.2 µM, Table 6): 30
# OF SYNCYTIA/WELL Day 9 (HTLV IIIB/H9 N.Y. [6]; 2 µM): 11
# OF SYNCYTIA/WELL Day 14 (HTLV IIIB/H9 N.Y. [6]; 2 µM): >100
% OF POS CELLS (HTLV IIIB/H9 N.Y. [6]; 2 µM): 10-15%
# OF SYNCYTIA/WELL Day 14 (HTLV IIIB/H9 N.Y. [6]; 2 µM, Table 6): 4
PERCENTAGE OF AG POS CELLS (HTLV IIIB/H9 N.Y. [6]; 2 µM, Table 6): 0.5-2
# OF SYNCYTIA/WELL Day 9 (HTLV IIIB/H9 N.Y. [6]; 20 µM): 0
# OF SYNCYTIA/WELL Day 14 (HTLV IIIB/H9 N.Y. [6]; 20 µM): 11
% OF POS CELLS (HTLV IIIB/H9 N.Y. [6]; 20 µM): 0-1%
# OF SYNCYTIA/WELL Day 14 (HTLV IIIB/H9 N.Y. [6]; 20 µM, Table 6): 0
PERCENTAGE OF POS CELLS (ELI1/HUT [7]; 0.2 µM): 10
PERCENTAGE OF POS CELLS (ELI1/HUT [7]; 2 µM): 10
PERCENTAGE OF POS CELLS (ELI1/HUT [7]; 20 µM): 10-15
# OF SYNCYTIA/WELL Day 9 (HTLV IIIB/H9 Denmark; 0.2 µM): 16
% OF POS CELLS (HTLV IIIB/H9 Denmark; 0.2 µM): 5-10%
# OF SYNCYTIA/WELL Day 9 (HTLV IIIB/H9 Denmark; 2 µM): 10
% OF POS CELLS (HTLV IIIB/H9 Denmark; 2 µM): 5-8%
# OF SYNCYTIA/WELL Day 9 (HTLV IIIB/H9 Denmark; 20 µM): 0
% OF POS CELLS (HTLV IIIB/H9 Denmark; 20 µM): 0.1-1%
IC50 ([8]; day 8 postinfection): ~400 nM
IC50 ([8]; twelve days after infection): ~3200 nM

Source: patent EP0545991B1, “PEPTIDES THAT BLOCK HUMAN IMMUNODEFICIENCY VIRUS INFECTIONS AND METHODS OF USE THEREOF” (VAHLNE, Anders, priority 1990, dated 1992)
